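Cultured in 96-well plates, cells were exposed to test compound for 48 hours across five concentrations. GI50: concentration for 50% inhibition of growth. TGI denotes the concentration required for complete inhibition of growth.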
How the values were obtained:
Test in all cases: NCI tumour cell line growth inhibition, 48 h
SF-539 CNS = tested on: SF-539 CNS
M14 melanoma = tested on: M14 melanoma
T-47D breast = tested on: T-47D breast
SK-OV-3 ovarian = tested on: SK-OV-3 ovarian
LOX IMVI melanoma = tested on: LOX IMVI melanoma
OVCAR-5 ovarian = tested on: OVCAR-5 ovarian
HOP-92 NSCLC = tested on: HOP-92 NSCLC
NCI-H23 lung = tested on: NCI-H23 lung
SNB-75 CNS = tested on: SNB-75 CNS
OVCAR-3 ovarian = tested on: OVCAR-3 ovarian
CCRF-CEM leukemia = tested on: CCRF-CEM leukemia
MALME-3M melanoma = tested on: MALME-3M melanoma
SK-MEL-28 melanoma = tested on: SK-MEL-28 melanoma
A549 NSCLC = tested on: A549 NSCLC
HCT-15 colon = tested on: HCT-15 colon
OVCAR-4 ovarian = tested on: OVCAR-4 ovarian
SF-295 CNS = tested on: SF-295 CNS
K-562 leukemia = tested on: K-562 leukemia
SF-268 CNS = tested on: SF-268 CNS
NCI/ADR-RES ovarian = tested on: NCI/ADR-RES ovarian
BT-549 breast = tested on: BT-549 breast
786-0 renal = tested on: 786-0 renal
HOP-62 NSCLC = tested on: HOP-62 NSCLC
SR leukemia = tested on: SR leukemia
NCI-H226 lung = tested on: NCI-H226 lung
MDA-MB-231 breast = tested on: MDA-MB-231 breast
COLO 205 colon = tested on: COLO 205 colon
KM12 colon = tested on: KM12 colon
HS 578T breast = tested on: HS 578T breast
EKVX NSCLC = tested on: EKVX NSCLC
HT29 colon = tested on: HT29 colon
U251 CNS = tested on: U251 CNS
MDA-MB-435 = tested on: MDA-MB-435
RXF 393 renal = tested on: RXF 393 renal
IGROV1 ovarian = tested on: IGROV1 ovarian
SNB-19 CNS = tested on: SNB-19 CNS
CAKI-1 renal = tested on: CAKI-1 renal
UO-31 renal = tested on: UO-31 renal
SK-MEL-5 melanoma = tested on: SK-MEL-5 melanoma
SN12C renal = tested on: SN12C renal
NCI-H460 lung = tested on: NCI-H460 lung
HL-60(TB) leukemia = tested on: HL-60(TB) leukemia
SK-MEL-2 melanoma = tested on: SK-MEL-2 melanoma
MOLT-4 leukemia = tested on: MOLT-4 leukemia
A498 renal = tested on: A498 renal
UACC-62 melanoma = tested on: UACC-62 melanoma
SW-620 colon = tested on: SW-620 colon
DU-145 prostate = tested on: DU-145 prostate
MCF7 breast = tested on: MCF7 breast
TK-10 renal = tested on: TK-10 renal
ACHN renal = tested on: ACHN renal
UACC-257 melanoma = tested on: UACC-257 melanoma
HCT-116 colon = tested on: HCT-116 colon
OVCAR-8 ovarian = tested on: OVCAR-8 ovarian
HCC-2998 colon = tested on: HCC-2998 colon
NCI-H522 lung = tested on: NCI-H522 lung
RPMI-8226 leukemia = tested on: RPMI-8226 leukemia
PC-3 prostate = tested on: PC-3 prostate

For COc1cc(CCNc2nc3cc(N)cc(N)c3nc2-c2ccccc2)cc(OC)c1, the GI50 (SF-539 CNS) was 2.19 µM, the TGI (SF-539 CNS) was 4.14 µM and the GI50 (M14 melanoma) was 2 µM. For the same compound, the TGI (M14 melanoma) was 4.05 µM, the GI50 (T-47D breast) was 1.74 µM and the TGI (T-47D breast) was 3.8 µM. It also gave a GI50 (SK-OV-3 ovarian) of 3.56 µM, a TGI (SK-OV-3 ovarian) of 13 µM and a GI50 (LOX IMVI melanoma) of 1.65 µM. For the same compound, the TGI (LOX IMVI melanoma) was 3.17 µM, the GI50 (OVCAR-5 ovarian) was 1.83 µM and the TGI (OVCAR-5 ovarian) was 3.69 µM. For the same compound, the GI50 (HOP-92 NSCLC) was 1.61 µM, the TGI (HOP-92 NSCLC) was 3.44 µM and the GI50 (NCI-H23 lung) was 1.59 µM. The TGI (NCI-H23 lung) was 3.58 µM, the GI50 (SNB-75 CNS) was 1.37 µM and the TGI (SNB-75 CNS) was 2.85 µM. The GI50 (OVCAR-3 ovarian) was 1.08 µM, the TGI (OVCAR-3 ovarian) was 2.35 µM and the GI50 (CCRF-CEM leukemia) was 1.36 µM. It also gave a TGI (CCRF-CEM leukemia) of 6.48 µM, a GI50 (MALME-3M melanoma) of 1.18 µM and a TGI (MALME-3M melanoma) of 2.53 µM. The GI50 (SK-MEL-28 melanoma) was 1.63 µM, the TGI (SK-MEL-28 melanoma) was 3.31 µM and the GI50 (A549 NSCLC) was 3.64 µM. For the same compound, the TGI (A549 NSCLC) was 14.9 µM, the GI50 (HCT-15 colon) was 2.43 µM and the TGI (HCT-15 colon) was 7.42 µM. The GI50 (OVCAR-4 ovarian) was 1.21 µM, the TGI (OVCAR-4 ovarian) was 2.54 µM and the GI50 (SF-295 CNS) was 1.77 µM. The TGI (SF-295 CNS) was 3.47 µM, the GI50 (K-562 leukemia) was 1.73 µM and the TGI (K-562 leukemia) was 4.25 µM. The GI50 (SF-268 CNS) was 1.74 µM, the TGI (SF-268 CNS) was 3.72 µM and the GI50 (NCI/ADR-RES ovarian) was 2.61 µM. It also gave a TGI (NCI/ADR-RES ovarian) of 6.3 µM, a GI50 (BT-549 breast) of 2.48 µM and a TGI (BT-549 breast) of 5.47 µM. It also gave a GI50 (786-0 renal) of 2 µM, a TGI (786-0 renal) of 3.99 µM and a GI50 (HOP-62 NSCLC) of 2.95 µM. The TGI (HOP-62 NSCLC) was 9.35 µM, the GI50 (SR leukemia) was 0.354 µM and the TGI (SR leukemia) was 2.22 µM. For the same compound, the GI50 (NCI-H226 lung) was 2.16 µM, the TGI (NCI-H226 lung) was 4.87 µM and the GI50 (MDA-MB-231 breast) was 1.57 µM. The TGI (MDA-MB-231 breast) was 4.55 µM, the GI50 (COLO 205 colon) was 1.76 µM and the TGI (COLO 205 colon) was 3.56 µM. The GI50 (KM12 colon) was 1.69 µM, the TGI (KM12 colon) was 3.54 µM and the GI50 (HS 578T breast) was 2.43 µM. It also gave a TGI (HS 578T breast) of 5.85 µM, a GI50 (EKVX NSCLC) of 1.8 µM and a TGI (EKVX NSCLC) of 3.4 µM. The GI50 (HT29 colon) was 1.93 µM, the TGI (HT29 colon) was 4.87 µM and the GI50 (U251 CNS) was 1.67 µM. For the same compound, the TGI (U251 CNS) was 3.11 µM, the GI50 (MDA-MB-435) was 1.77 µM and the TGI (MDA-MB-435) was 3.5 µM. The GI50 (RXF 393 renal) was 1.59 µM, the TGI (RXF 393 renal) was 4.8 µM and the GI50 (IGROV1 ovarian) was 2.52 µM. It also gave a TGI (IGROV1 ovarian) of 7.98 µM, a GI50 (SNB-19 CNS) of 5.92 µM and a TGI (SNB-19 CNS) of 18.6 µM. It also gave a GI50 (CAKI-1 renal) of 1.93 µM, a TGI (CAKI-1 renal) of 3.6 µM and a GI50 (UO-31 renal) of 1.94 µM. For the same compound, the TGI (UO-31 renal) was 3.78 µM, the GI50 (SK-MEL-5 melanoma) was 1.79 µM and the TGI (SK-MEL-5 melanoma) was 3.36 µM. For the same compound, the GI50 (SN12C renal) was 1.67 µM, the TGI (SN12C renal) was 3.12 µM and the GI50 (NCI-H460 lung) was 3.25 µM. It also gave a TGI (NCI-H460 lung) of 10.9 µM, a GI50 (HL-60(TB) leukemia) of 1.25 µM and a TGI (HL-60(TB) leukemia) of 3.33 µM. It also gave a GI50 (SK-MEL-2 melanoma) of 1.92 µM, a TGI (SK-MEL-2 melanoma) of 3.92 µM and a GI50 (MOLT-4 leukemia) of 0.941 µM. The TGI (MOLT-4 leukemia) was 2.67 µM, the GI50 (A498 renal) was 3.95 µM and the TGI (A498 renal) was 14.3 µM. The GI50 (UACC-62 melanoma) was 1.81 µM, the TGI (UACC-62 melanoma) was 3.36 µM and the GI50 (SW-620 colon) was 2.28 µM. The TGI (SW-620 colon) was 4.71 µM, the GI50 (DU-145 prostate) was 5.48 µM and the TGI (DU-145 prostate) was 17.8 µM. The GI50 (MCF7 breast) was 1.71 µM, the TGI (MCF7 breast) was 3.89 µM and the GI50 (TK-10 renal) was 3.49 µM. The TGI (TK-10 renal) was 12.1 µM, the GI50 (ACHN renal) was 1.8 µM and the TGI (ACHN renal) was 3.27 µM. The GI50 (UACC-257 melanoma) was 1.76 µM and the TGI (UACC-257 melanoma) was 3.61 µM.
Compound CCCCC1=CC1(C#N)[N+](=O)[O-] (stereo not given) has a TGI (SF-539 CNS) greater than 100 µM, a TGI (M14 melanoma) greater than 100 µM and a TGI (T-47D breast) greater than 100 µM. The TGI (SK-OV-3 ovarian) was greater than 100 µM, the TGI (LOX IMVI melanoma) was greater than 100 µM and the TGI (OVCAR-5 ovarian) was greater than 100 µM. For the same compound, the TGI (HOP-92 NSCLC) was greater than 100 µM, the TGI (NCI-H23 lung) was greater than 100 µM and the TGI (SNB-75 CNS) was greater than 100 µM. It also gave a TGI (HCT-116 colon) greater than 100 µM, a TGI (OVCAR-3 ovarian) greater than 100 µM and a TGI (CCRF-CEM leukemia) of 63.6 µM. For the same compound, the TGI (MALME-3M melanoma) was greater than 100 µM, the TGI (SK-MEL-28 melanoma) was greater than 100 µM and the TGI (OVCAR-8 ovarian) was greater than 100 µM. The TGI (A549 NSCLC) was greater than 100 µM, the TGI (HCT-15 colon) was greater than 100 µM and the TGI (OVCAR-4 ovarian) was greater than 100 µM. The TGI (HCC-2998 colon) was greater than 100 µM, the TGI (SF-295 CNS) was greater than 100 µM and the TGI (K-562 leukemia) was 66.6 µM. It also gave a TGI (SF-268 CNS) greater than 100 µM, a TGI (NCI/ADR-RES ovarian) greater than 100 µM and a TGI (NCI-H522 lung) greater than 100 µM. For the same compound, the TGI (RPMI-8226 leukemia) was greater than 100 µM, the TGI (BT-549 breast) was greater than 100 µM and the TGI (786-0 renal) was greater than 100 µM. The TGI (HOP-62 NSCLC) was greater than 100 µM, the TGI (SR leukemia) was greater than 100 µM and the TGI (NCI-H226 lung) was greater than 100 µM. The TGI (MDA-MB-231 breast) was greater than 100 µM, the TGI (COLO 205 colon) was greater than 100 µM and the TGI (KM12 colon) was greater than 100 µM. The TGI (HS 578T breast) was greater than 100 µM, the TGI (EKVX NSCLC) was greater than 100 µM and the TGI (HT29 colon) was greater than 100 µM. It also gave a TGI (U251 CNS) greater than 100 µM, a TGI (MDA-MB-435) greater than 100 µM and a TGI (RXF 393 renal) greater than 100 µM. The TGI (IGROV1 ovarian) was greater than 100 µM, the TGI (SNB-19 CNS) was greater than 100 µM and the TGI (CAKI-1 renal) was greater than 100 µM. It also gave a TGI (UO-31 renal) greater than 100 µM, a TGI (SK-MEL-5 melanoma) greater than 100 µM and a TGI (SN12C renal) greater than 100 µM. For the same compound, the TGI (NCI-H460 lung) was greater than 100 µM, the TGI (MOLT-4 leukemia) was 67.5 µM and the TGI (A498 renal) was greater than 100 µM. It also gave a TGI (UACC-62 melanoma) greater than 100 µM, a TGI (SW-620 colon) greater than 100 µM and a TGI (DU-145 prostate) greater than 100 µM. For the same compound, the TGI (PC-3 prostate) was greater than 100 µM, the TGI (MCF7 breast) was greater than 100 µM and the TGI (TK-10 renal) was greater than 100 µM. The TGI (ACHN renal) was greater than 100 µM and the TGI (UACC-257 melanoma) was greater than 100 µM.

Source: PubChem BioAssay (NCI)
